Here are results for one molecule from publication PMC3688941, “Characterization of a Chitin-Binding Protein from Bacillus thuringiensis HD-1” (PLoS ONE, 2013).

Test [1] relates to Ha-Chitinase. In words: fluorometric chitinase assay. It is filed as biochemical, Helicoverpa armigera. The following applies: 50 mM sodium phosphate pH 7.0, 30 °C, 20 min; without Bt-CBP21; footnote gives substrate as 50 µM. The text has this: fluorometric chitinase assay on Ha-Chitinase
For test [2], the system named is T1, Bt-Chitinase.
T1 construct: EC 3.2.1.14
Nature of the test: fluorometric chitinase assay. It is filed as biochemical, Bacillus thuringiensis serovar kurstaki. The note with it: 50 mM sodium phosphate pH 7.0, 30 °C, 20 min; without Bt-CBP21; footnote gives substrate as 50 µM. The text has this: fluorometric chitinase assay on Bt-Chitinase

For `CC(=O)N[C@H]1[C@H](Oc2ccc3c(C)cc(=O)oc3c2)O[C@H](CO)[C@@H](O[C@@H]2O[C@H](CO)[C@@H](O)[C@H](O)[C@H]2NC(C)=O)[C@@H]1O` [4-MU-(GlcNAc)2], the figures for the Michaelis-Menten constant (Km) in test [1] and in test [2] were 1400 nM and 30 µM, respectively.
